Test results as given in patent US9447438B2, “Acetyl-coA carboxylases” (OPX Biotechnologies, Inc., priority 2013, dated 2016).

Columns and labels:
[1] = target: E. coli ACCase (Escherichia coli, UniProt P0A9Q5+P0ABD5+P0ABD8+P24182); conditions: FIG. 4; for effect of salt on E. coli ACCase activity: compared to H. elongata ACCase; for decrease of the activity of the ACCase enzyme relative to control: salt levels near 0.44M
Description: Levels of greater than 0.66M (60 g/L) are expected to be present for commercially viable commercial production of 3-HP.
Each gene was amplified by PCRs with Pfu Ultra II HS using the manufacturer's instructions, and the PCR products were purified using the Zymo PCR Cleanup kit. Concentrations of products were measured using the Nanodrop spectophotometer. The Gibson Assembly kit (NEB) was used to construct plasmids expressing the ACCase subunit genes as directed by the manufacturer. The effect of NH4-3-HP and NH4Cl on H. elongata ACCase was tested and compared to the E. coli ACCase.

[2] = tested on: H. elongata ACCase; experiment: Effect of NH4-3-HP and NH4Cl on H. elongata ACCase; format: biochemical, Halomonas elongata; conditions: FIG. 4; compared to E. coli ACCase
Description: Concentrations of products were measured using the Nanodrop spectophotometer.

Sequence of E. coli ACCase (P0A9Q5 whole entry): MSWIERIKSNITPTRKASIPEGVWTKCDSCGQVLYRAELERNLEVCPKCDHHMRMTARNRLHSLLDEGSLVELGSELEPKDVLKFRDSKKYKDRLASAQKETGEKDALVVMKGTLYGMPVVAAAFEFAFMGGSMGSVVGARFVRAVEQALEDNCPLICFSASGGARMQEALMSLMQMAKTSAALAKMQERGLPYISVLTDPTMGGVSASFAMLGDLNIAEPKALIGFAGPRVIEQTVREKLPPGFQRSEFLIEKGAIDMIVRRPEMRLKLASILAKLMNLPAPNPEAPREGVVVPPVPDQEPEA
Sequence of E. coli ACCase (P0ABD5 whole entry): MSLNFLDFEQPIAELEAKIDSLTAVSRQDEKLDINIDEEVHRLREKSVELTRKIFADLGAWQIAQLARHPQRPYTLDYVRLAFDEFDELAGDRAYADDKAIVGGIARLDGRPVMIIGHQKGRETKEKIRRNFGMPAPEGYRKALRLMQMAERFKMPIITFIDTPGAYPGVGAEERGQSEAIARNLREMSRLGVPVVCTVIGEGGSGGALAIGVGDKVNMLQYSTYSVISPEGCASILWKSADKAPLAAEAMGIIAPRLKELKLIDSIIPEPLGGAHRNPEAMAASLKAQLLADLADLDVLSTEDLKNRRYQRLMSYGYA

Structure (SMILES) | effect of salt on E. coli ACCase activity [1] | effect of salt on H. elongata ACCase activity [2] | decrease of the activity of the ACCase enzyme relative to control [1]
N.O=C(O)CCO [NH4-3-HP] | significantly inhibited | less affected | –
Cl.N [NH4Cl] | significantly inhibited | less affected | approximately 80%
[Cl-].[Na+] [NaCl] | – | – | approximately 80%
